Patent publication US20230075368A1, “IDENTIFICATION OF AN EGFR-BIN3 PATHWAY THAT ACTIVELY SUPPRESSES INVASION AND REDUCES TUMOR SIZE IN GLIOBLASTOMA” (The United States Govemment as represented by the …, priority 2020, published 2023)

Key:
STAT1 = test: Western blot of pSTAT1 and STAT1; type: cell-based, human; details: tofacitinib 1 μM, 24 hours; GBM12 and GBM6
Description: Mayo PDX cells were serum starved overnight. Following treatment for specific time, cells were harvested and lysed. The human glioblastoma tissues were ground in liquid nitrogen and then were lysed. […] TGFα antibody was from R&D system.
. . . […] A similar experiment was performed in GBM6 (FIG. 18F). […] The Western blot images are representative of three independent biological replicates. Actin served as loading control. Data are represented as mean±SEM from three independent experiments. *P<0.05, **P<0.01, ***P<0.001, unpaired two-tailed t-test.

[1] = test system: orthotopic glioblastoma tumors (Mayo PDXs); test: Orthotopic glioblastoma xenotransplant model treated with tofacitinib; type: in vivo, mice
Description: 4 to 6 weeks old female athymic nude mice were purchased from Charles River Laboratories. Mayo PDXs were injected into the right corpus striatum of the brains of 6-8 week-old nude mice using a stereotactic frame. […] Kaplan-Maier survival curves were calculated using GraphPad Prism 7.0 software. Alzet Osmotic pumps were installed for brain delivery of EGF or vehicle in tumor bearing mice. To monitor the mice with orthotropic xenografts, MRI was performed at the Mouse MRI Core, Advanced Imaging Research Center, at UT Southwestern.
Knockdown efficiency of HB-EGF in GBM39 control shRNA (GBM39shCtrl) and HB-EGF shRNA (GBM39shHB-EGF_1, GBM39shHB-EGF_2) clones was confirmed by ELISA (FIG. 21I). […] The Western blot images are representative of three independent biological replicates. Actin served as loading control. Scale bars: […]. Data are represented as mean±SEM from three independent experiments. ***P<0.001, […], n.s. not significant, unpaired two-tailed t-test.

GBM12 = test: Cignal 45-Pathway Reporter Array; type: cell-based, human; details: tofacitinib 1 μM, 24 hours
[2] = test system: U251MG and U87MG cell lines; test: Matrigel invasion assay in established GBM lines; type: cell-based, human; details: for cell invasion: EGF 50 ng/ml
Description: Invasion status of cells was tested with Matrigel Boyden chamber assays (Fisher). 1×10^5 cells were plated on BD BioCoat Matrigel invasion chambers. 24 hours after treatment with drugs, invaded cells were stained with the HEMA-3 kit (Fisher). Invaded cells were counted in 4-5 random fields.
Referring to FIG. 6A-E, EGF inhibits EGFR overexpression induced cell invasion. […] Tetracycline induced EGFR overexpression was confirmed by Western blotting (FIG. 6E). The Western blot images are representative of three independent biological replicates. Actin served as loading control. Data are represented as mean±SEM from three independent experiments. **P<0.01, ***P<0.001, n.s. not significant, unpaired two-tailed t-test.

GBM12 and GBM6 cells = test: Scratch-wound assay; type: cell-based, human; details: EGF 50 ng/ml, 24 hours
Description: Cells were cultured in 6 well plate until they reached around 100% confluence. A scratch wound was produced on the monolayer using a sterile 200 ul pipette tip. The cell cultured with serum free DMEM containing EGF (50 ng/ml) or vehicle control. Images of wound were captured 0 and 24 hours after scratch generation.
Referring to FIG. 4A-D, an analysis of glioma cell migration by in vitro scratch assays is shown. […] Data are represented as mean±SEM from three independent experiments. ** P<0.01, unpaired two-tailed t-test.

GBM12 cells = test: Intravital microscopy of GBM cell motility through cranial window; type: in vivo, mice; details: 10 ng EGF injected through cranial window 24 hours before imaging
Description: Two-photon laser intravital microscope combined with cranial window surgery was used to observe cellular movement in vivo. Female athymic nude mice were anesthetized with 2.5% isoflourane and secured in a stereotactic frame. The head was shaved and the scalp was cut in a circular manner. The periosteum was scraped and a drill was used to create a circular cranial window over the front and parietal bone. 10 μL of 1×10^6 cells/ml GBM12 stably expressing H2B-GFP were implanted at a depth of 0.5 mm. Following implantation, a 5 mm silicone-based polydimethylsiloxane (PDMS) coverslip was glued to the bone surrounding the cranial window. PDMS (SYLGARD184, Sigma-Aldrich) film was prepared as described by Heo et al. (Heo, et al. (2016) A soft, transparent, freely accessible cranial window for chronic imaging and electrophysiology, Sci Rep 6: 27818). PDMS coverslip allows for easy insertion of Hamilton needle into the brain tissue for EGF delivery. Dental cement was applied on the skull surface, covering the edge of the coverslip. Seven days after surgery and 24 hours prior to imaging procedure, 10 ng EGF or vehicle was injected into the mice brain through cranial window. […]
Referring to FIG. 14A and FIG. 14B, EGF reduces cell migration speed in vivo detected by intravital microscopy. […] The cell velocity of around 200 cells per mouse were evaluated. […]

Mayo PDX cells = test: Matrigel invasion assay; type: cell-based, human; details: low-dose EGF (5 ng/ml), 24 hours; GBM12 and GBM6
glioma cells = details: Ramnarain et al. 2006, cited from earlier work
[3] = GBM12V tumors, tofacitinib 50 mg/kg, oral gavage
[4] = orthotopic GBM39 with HBEGF silenced, tofacitinib treated

| Compound | phosphorylation of STAT1 (STAT1) | survival benefit ([1]; GBM12TGFα tumors, tofacitinib 50 mg/kg, oral gavage) | survival [1, 3] | tumor invasion (H&E, SMI-31) [1, 3] | infiltration of surrounding normal tissue ([1]; GBM12 or GBM6 orthotopic model, 40 mg/kg/day for 3 weeks) | survival ([1]; GBM12 or GBM6 orthotopic model, 40 mg/kg/day for 3 weeks, from one week after intracranial injection) | responsiveness of orthotopic tumors ([1]; GBM39 with HBEGF silenced vs. controls) | survival [1, 4] | tumor invasiveness [1, 4] | transcription factor activity (GBM12) | cell invasion ([2]; EGFR overexpressed in U87MG and U251MG) | cell invasion ([2]; U251MG and U87MG with low endogenous EGFR) | invasion increased by inducible EGFRwt expression ([2]; tetracycline induced EGFR overexpressing U251MG cells, plus EGF) | migration (scratch wound closure) (GBM12 and GBM6 cells) | movement of glioma cells in live mouse brain (GBM12 cells) | cell invasion (Mayo PDX cells) | BIN3 gene upregulation when EGF is added (glioma cells; EGFR overexpressing glioma cells) [fold] | EGR1 gene induction with ligand-activated EGFR signaling (glioma cells) [fold] |
| --- | --- | --- | --- | --- | --- | --- | --- | --- | --- | --- | --- | --- | --- | --- | --- | --- | --- | --- |
| C[C@@H]1CCN(C(=O)CC#N)C[C@@H]1N(C)c1ncnc2[nH]ccc12 [tofacitinib] | blocks phosphorylation | no additional benefit | significant improvement in survival | decreased invasion | do not infiltrate the surrounding normal tissue | prolong survival | more responsive | improved | less invasive | upregulates multiple transcription factors | – | – | – | – | – | – | – | – |
| EGF: Recombinant human EGF (AF-100) from Peprotech; EGFR ligand | – | – | – | – | – | – | – | – | – | – | decreased invasion | increased invasiveness | abolished | suppressing migration | almost complete cessation of movement | suppressed invasion | 19.2 | 13.68 |
